Like-named read-outs stand apart in the source and are kept apart here. Where a SMILES comes first, the peptide text is derived from it. Bridges are numbered along the chain shown (N, C = ends). Roman numbers before positions name the chains, in order. Side-chain parts run from the residue outwards. [ ]: non-standard residue; d: D form. The star is where a group is joined. BODIPY(FL) = CC1=CC(C)=[N+]2C1=Cc1ccc(CCC(=O)*)n1[B-]2(F)F; NMeK = CN[C@@H](CCCCN)C(=O)O; Ahx = NCCCCCC(=O)O
How the values were obtained:
αvβ5 = αvβ5 (Homo sapiens, UniProt P06756+P18084); assay: solid-phase integrin binding assay, αvβ5
Experimental: (§1) The activity and selectivity of integrin ligands were determined by a solid-phase binding assay according to the previously reported protocols using coated extracellular matrix proteins and soluble integrins: Fibronectin (Fn) for α5β1, latent activating protein (LAP) for αvβ6 and αvβ8, Vitronectin (Vn) for αvβ3 and αvβ5, Fibrinogen (Fbg) for αIIbβ3.

α5β1 = α5β1 (Homo sapiens, UniProt P05556+P08648); assay: solid-phase integrin binding assay, α5β1
Experimental: as §1

αvβ6 = αvβ6 (Homo sapiens, UniProt P06756+P18564); assay: solid-phase integrin binding assay, αvβ6
Experimental: as §1

αvβ8 = αvβ8 (Homo sapiens, UniProt P06756+P26012); assay: solid-phase integrin binding assay, αvβ8; settings: for IC50: Table 1, coated LAP, soluble integrin, read-out: αvβ8 [nM] (integrin binding affinity)
αvβ3 = αvβ3 (Homo sapiens, UniProt P05106+P06756); assay: solid-phase integrin binding assay, αvβ3; settings: Table 2; coated Vitronectin
Experimental: as §1

αIIbβ3 = αIIbβ3 (Homo sapiens, UniProt P05106+P08514); assay: solid-phase integrin binding assay, αIIbβ3; settings: Table 2; coated Fibrinogen
Experimental: as §1

[1] = Table 3, BDPFL-labelled compounds and comparatives
[2] = Table 1, coated LAP, soluble integrin, read-out: αvβ6 [nM] (integrin binding affinity)

Sequence of αvβ6 (P06756 31-889 limits assumed): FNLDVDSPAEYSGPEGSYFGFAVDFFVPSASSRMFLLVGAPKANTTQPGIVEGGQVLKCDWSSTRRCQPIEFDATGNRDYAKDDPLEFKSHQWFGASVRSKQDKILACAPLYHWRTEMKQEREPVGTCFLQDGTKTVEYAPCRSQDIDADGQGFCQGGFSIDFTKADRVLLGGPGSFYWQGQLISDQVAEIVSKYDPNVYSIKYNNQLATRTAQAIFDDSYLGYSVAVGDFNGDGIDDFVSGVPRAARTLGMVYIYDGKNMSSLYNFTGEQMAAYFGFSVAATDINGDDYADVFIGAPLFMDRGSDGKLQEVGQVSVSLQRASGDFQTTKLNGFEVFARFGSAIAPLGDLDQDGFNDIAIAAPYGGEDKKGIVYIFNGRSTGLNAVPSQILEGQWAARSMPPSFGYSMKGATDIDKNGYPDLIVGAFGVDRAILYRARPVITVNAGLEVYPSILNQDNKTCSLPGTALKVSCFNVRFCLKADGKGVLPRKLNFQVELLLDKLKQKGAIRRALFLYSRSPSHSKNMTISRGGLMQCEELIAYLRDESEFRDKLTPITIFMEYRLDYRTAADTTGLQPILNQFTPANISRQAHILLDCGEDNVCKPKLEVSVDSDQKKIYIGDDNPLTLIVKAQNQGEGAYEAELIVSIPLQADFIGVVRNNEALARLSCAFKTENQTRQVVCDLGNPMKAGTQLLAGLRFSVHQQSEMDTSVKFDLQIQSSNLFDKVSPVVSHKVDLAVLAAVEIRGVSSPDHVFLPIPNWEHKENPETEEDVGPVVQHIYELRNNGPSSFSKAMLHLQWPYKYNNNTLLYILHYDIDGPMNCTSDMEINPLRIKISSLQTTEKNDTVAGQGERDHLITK
Sequence of αvβ6 (P06756 891-992 partner limits assumed): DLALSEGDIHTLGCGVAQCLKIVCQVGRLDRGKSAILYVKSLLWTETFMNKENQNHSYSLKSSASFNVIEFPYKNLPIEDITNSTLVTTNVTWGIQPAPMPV
Sequence of αvβ6 (P18564 22-707 limits assumed): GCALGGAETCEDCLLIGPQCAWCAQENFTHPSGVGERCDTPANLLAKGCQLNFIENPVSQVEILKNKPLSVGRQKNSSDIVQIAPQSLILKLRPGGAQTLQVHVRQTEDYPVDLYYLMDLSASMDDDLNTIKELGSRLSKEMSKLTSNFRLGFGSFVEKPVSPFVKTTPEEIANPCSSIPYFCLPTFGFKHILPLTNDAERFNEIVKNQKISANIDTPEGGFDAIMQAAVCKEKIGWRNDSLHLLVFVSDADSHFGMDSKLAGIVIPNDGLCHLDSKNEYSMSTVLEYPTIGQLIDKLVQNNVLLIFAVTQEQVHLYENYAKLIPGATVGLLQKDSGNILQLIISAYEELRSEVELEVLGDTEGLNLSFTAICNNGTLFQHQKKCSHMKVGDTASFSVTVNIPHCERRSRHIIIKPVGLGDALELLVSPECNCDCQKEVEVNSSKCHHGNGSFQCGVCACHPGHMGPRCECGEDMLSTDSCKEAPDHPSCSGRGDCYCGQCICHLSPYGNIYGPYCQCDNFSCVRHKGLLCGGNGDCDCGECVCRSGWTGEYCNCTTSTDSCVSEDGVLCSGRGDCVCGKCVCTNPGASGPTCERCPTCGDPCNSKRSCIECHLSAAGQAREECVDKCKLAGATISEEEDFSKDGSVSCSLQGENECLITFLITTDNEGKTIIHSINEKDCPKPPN
Sequence of αvβ8 (P06756 31-889 limits assumed): as the sequence (P06756 31-889 limits assumed) above
Sequence of αvβ8 (P06756 891-992 partner limits assumed): as the sequence (P06756 891-992 partner limits assumed) above
Sequence of αvβ8 (P26012 43-684 limits assumed): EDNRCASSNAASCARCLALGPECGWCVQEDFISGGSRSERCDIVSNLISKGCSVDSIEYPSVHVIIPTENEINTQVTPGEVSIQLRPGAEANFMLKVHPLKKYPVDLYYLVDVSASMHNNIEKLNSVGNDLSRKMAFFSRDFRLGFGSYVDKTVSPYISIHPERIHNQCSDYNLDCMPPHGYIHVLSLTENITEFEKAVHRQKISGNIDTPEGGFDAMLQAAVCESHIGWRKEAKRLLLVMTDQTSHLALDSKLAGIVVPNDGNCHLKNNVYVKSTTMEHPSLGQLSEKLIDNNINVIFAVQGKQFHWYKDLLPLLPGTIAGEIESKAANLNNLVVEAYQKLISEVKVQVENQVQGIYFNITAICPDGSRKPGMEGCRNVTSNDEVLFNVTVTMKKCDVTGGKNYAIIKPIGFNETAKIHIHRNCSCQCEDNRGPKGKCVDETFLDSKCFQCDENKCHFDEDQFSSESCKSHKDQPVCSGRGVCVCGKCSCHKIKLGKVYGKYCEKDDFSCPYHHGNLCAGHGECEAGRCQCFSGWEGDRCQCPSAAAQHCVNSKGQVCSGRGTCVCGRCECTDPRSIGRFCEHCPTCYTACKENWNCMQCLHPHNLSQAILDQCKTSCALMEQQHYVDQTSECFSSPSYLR
Sequence of αvβ5 (P06756 31-889 limits assumed): as the sequence (P06756 31-889 limits assumed) above
Sequence of αvβ5 (P06756 891-1048 partner limits assumed): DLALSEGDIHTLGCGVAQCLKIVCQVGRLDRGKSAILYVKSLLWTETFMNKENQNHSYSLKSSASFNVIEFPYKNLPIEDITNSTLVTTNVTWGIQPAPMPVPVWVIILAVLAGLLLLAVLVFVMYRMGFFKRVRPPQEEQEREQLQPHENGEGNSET
Sequence of αvβ5 (P18084 24-799): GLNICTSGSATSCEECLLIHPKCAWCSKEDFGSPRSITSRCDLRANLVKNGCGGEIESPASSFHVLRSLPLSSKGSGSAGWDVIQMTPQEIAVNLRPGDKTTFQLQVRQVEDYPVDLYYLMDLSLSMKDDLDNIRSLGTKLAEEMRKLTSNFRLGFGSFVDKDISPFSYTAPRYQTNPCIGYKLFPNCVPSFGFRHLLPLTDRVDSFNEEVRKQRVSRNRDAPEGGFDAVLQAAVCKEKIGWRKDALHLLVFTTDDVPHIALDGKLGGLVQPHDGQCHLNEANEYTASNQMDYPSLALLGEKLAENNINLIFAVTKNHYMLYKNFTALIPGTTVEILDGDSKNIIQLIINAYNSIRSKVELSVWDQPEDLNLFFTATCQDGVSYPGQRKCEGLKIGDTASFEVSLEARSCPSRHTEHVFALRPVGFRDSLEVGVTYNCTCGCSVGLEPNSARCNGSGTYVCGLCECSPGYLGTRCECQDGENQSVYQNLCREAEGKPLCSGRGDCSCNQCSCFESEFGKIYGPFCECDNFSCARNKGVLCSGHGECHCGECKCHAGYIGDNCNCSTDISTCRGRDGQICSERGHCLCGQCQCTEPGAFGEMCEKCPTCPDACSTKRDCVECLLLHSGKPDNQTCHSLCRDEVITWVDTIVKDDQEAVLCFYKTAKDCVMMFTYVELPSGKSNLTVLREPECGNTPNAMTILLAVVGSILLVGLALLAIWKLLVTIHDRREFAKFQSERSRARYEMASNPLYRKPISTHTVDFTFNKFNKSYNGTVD
Sequence of αvβ3 (P06756 31-889 limits assumed): as the sequence (P06756 31-889 limits assumed) above
Sequence of αvβ3 (P06756 891-992 partner limits assumed): as the sequence (P06756 891-992 partner limits assumed) above
Sequence of αvβ3 (P05106 27-718 limits assumed): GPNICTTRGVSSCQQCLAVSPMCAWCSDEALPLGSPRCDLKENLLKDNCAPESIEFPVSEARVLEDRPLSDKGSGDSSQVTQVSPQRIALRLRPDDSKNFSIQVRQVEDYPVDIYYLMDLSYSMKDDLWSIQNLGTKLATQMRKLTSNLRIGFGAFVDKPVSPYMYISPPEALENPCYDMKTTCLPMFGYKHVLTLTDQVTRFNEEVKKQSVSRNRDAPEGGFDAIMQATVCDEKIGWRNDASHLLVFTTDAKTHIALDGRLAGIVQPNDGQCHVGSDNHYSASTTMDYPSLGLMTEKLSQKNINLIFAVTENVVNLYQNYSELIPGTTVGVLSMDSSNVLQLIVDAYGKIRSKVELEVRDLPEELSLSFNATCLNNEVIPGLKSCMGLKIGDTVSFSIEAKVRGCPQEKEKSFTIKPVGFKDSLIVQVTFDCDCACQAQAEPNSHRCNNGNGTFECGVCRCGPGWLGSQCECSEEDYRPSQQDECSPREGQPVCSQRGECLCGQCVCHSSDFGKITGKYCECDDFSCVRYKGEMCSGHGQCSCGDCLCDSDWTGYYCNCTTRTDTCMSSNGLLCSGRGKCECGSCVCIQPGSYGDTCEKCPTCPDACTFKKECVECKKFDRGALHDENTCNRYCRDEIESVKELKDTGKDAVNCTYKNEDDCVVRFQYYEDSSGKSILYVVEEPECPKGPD

Compound	IC50 (αvβ5; [1])	IC50 (αvβ8)	IC50 (αvβ6; [2])	also measured
Cc1cc(C)n2c1C=C1C=CC(CCC(=O)NCCCC[C@H]3C(=O)NCC(=O)N[C@@H](CC(C)C)C(=O)N[C@@H](CCCNC(=N)N)C(=O)NCC(=O)N[C@@H](CC(=O)O)C(=O)N[C@@H](CC(C)C)C(=O)N4CCC[C@@H]4C(=O)N3C)=[N+]1[B-]2(F)F [Compound 9a, 9-BDPFL] (cyclo(RGDL[dP][NMeK](BODIPY(FL))GL))	> 10 µM			
CC1=CC(C)=[N+]2C1=Cc1ccc(CCC(=O)NCCCCCC(=O)NCCCC[C@H]3C(=O)NCC(=O)N[C@@H](CC(C)C)C(=O)N[C@@H](CCCNC(=N)N)C(=O)NCC(=O)N[C@@H](CC(=O)O)C(=O)N[C@@H](CC(C)C)C(=O)N4CCC[C@@H]4C(=O)N3C)n1[B-]2(F)F [Compound 9b, 9-Ahx-BDPFL] (cyclo(RGDL[dP][NMeK]([Ahx-BODIPY(FL)])GL))	> 10 µM			IC50 (α5β1; [1]): > 1000 nM
Cc1cc(C)n2c1C=C1C=CC(CCC(=O)NCC(=O)N3CCC[C@H]3C(=O)N3CCC[C@H]3C(=O)N3CCC[C@H]3C(=O)NCC(=O)NCCCC[C@H]3C(=O)NCC(=O)N[C@@H](CC(C)C)C(=O)N[C@@H](CCCNC(=N)N)C(=O)NCC(=O)N[C@@H](CC(=O)O)C(=O)N[C@@H](CC(C)C)C(=O)N4CCC[C@@H]4C(=O)N3C)=[N+]1[B-]2(F)F [Compound 9e, 9-G(P)3G-BDPFL] (I: cyclo(RGDL[dP][NMeK]GL) / II: {BODIPY(FL)}-GPPPG; amide I:6-II:C)	> 10 µM			IC50 (αvβ6; Table 3, BDPFL-labelled compounds and comparatives, read-out: αvβ6, IC50): 247 nM
Cc1cc(C)n2c1C=C1C=CC(CCC(=O)NCC(=O)N3CCC[C@H]3C(=O)N3CCC[C@H]3C(=O)N3CCC[C@H]3C(=O)N3CCC[C@H]3C(=O)N3CCC[C@H]3C(=O)N3CCC[C@H]3C(=O)NCC(=O)NCCCC[C@H]3C(=O)NCC(=O)N[C@@H](CC(C)C)C(=O)N[C@@H](CCCNC(=N)N)C(=O)NCC(=O)N[C@@H](CC(=O)O)C(=O)N[C@@H](CC(C)C)C(=O)N4CCC[C@@H]4C(=O)N3C)=[N+]1[B-]2(F)F [Compound 9f, 9-G(P)6G-BDPFL] (I: {BODIPY(FL)}-GPPPPPPG / II: cyclo(RGDL[dP][NMeK]GL); amide I:C-II:6)	> 10 µM			binding activity to αvβ8 (in words) (αvβ8; comparison with compound 9, comment on Table 3): reduced binding activity
CC(C)C[C@@H]1NC(=O)CNC(=O)[C@@H]2CCCN2C(=O)[C@H]2CCCN2C(=O)[C@H](CC(C)C)NC(=O)[C@H](CC(=O)O)NC(=O)CNC(=O)[C@H](CCCNC(=N)N)NC1=O [compound 2, Cyclo-(Arg-Gly-Asp-Leu-D-Pro-Pro-Gly-Leu)] (cyclo(RGDL[dP]PGL))		0.93 nM	210 nM	
CC(C)C[C@@H]1NC(=O)CNC(=O)[C@H](CCCCN)N(C)C(=O)[C@H]2CCCN2C(=O)[C@H](CC(C)C)NC(=O)[C@H](CC(=O)O)NC(=O)CNC(=O)[C@H](CCCNC(=N)N)NC1=O [compound 8, Cyclo-(Arg-Gly-Asp-Leu-D-Pro-(N-Me-Lys)-Gly-Leu)] (cyclo(RGDL[dP][NMeK]GL))		6.5 nM	201 nM	IC50 (αvβ3): > 1000 nM; IC50 (αvβ5; Table 2, coated Vitronectin): > 1 µM; IC50 (α5β1; Table 2, coated Fibronectin): > 1000 nM; IC50 (αIIbβ3): > 1000 nM
CC(=O)NCCCC[C@H]1C(=O)NCC(=O)N[C@@H](CC(C)C)C(=O)N[C@@H](CCCNC(=N)N)C(=O)NCC(=O)N[C@@H](CC(=O)O)C(=O)N[C@@H](CC(C)C)C(=O)N2CCC[C@@H]2C(=O)N1C [compound 9, Cyclo-(Arg-Gly-Asp-Leu-D-Pro-(N-Me-Lys(Ac))-Gly-Leu)] (cyclo(RGDL[dP][NMeK](Ac)GL))		6 nM	201 nM	

— patent publication US11332498B2, “Ligands for integrin αVβ8, synthesis and uses thereof” (Technische Universitat Munchen, priority 2017, dated 2022)
